Experimental data: patent publication US6716635B2, “Method for identifying regulators of protein-advanced glycation end product (protein-AGE) formation” (University of Kentucky Research Foundation, priority 2000, dated 2004)

How the values were obtained:
[1] = test system: histone H1 (glycation by ADP-ribose); test: AGE-fluorescence screening of glycation inhibitors, histone H1 + ADP-ribose, 96 well microtiter plates; format: biochemical, calf; conditions: for inhibition of AGE-fluorescence, in words: 1 to 10 mM, 5 days; for AGE-fluorescence (day 5): 5 days incubation; for % inhibition: AGE-fluorescence day 5; for AGE-fluorescence (day 0): value (spread)
Procedure: A 96-well, microtiter plate was used to carry out 48 reactions in duplicate. […] A second pair of wells contains the reactants and the known glycation inhibitor aminoguanidine, and functions as a positive control. Histone H1 is commercially available, and can be prepared following the procedures set out in Johns, et al., Biochem J. 92:55-59(1964), which is incorporated by reference herein.
The reaction system is 50 mM potassium phosphate buffer, at pH 7.4 to which 1.5 mg/ml histone H1 and 1.0 mM ADP-ribose were added. Reaction volume was 300 ul. AGE-fluorescence was measured over time, with incubation at 37° C., at 355 nm (ex) and 405 nm (em). Upon comparison to the control, a test compound was deemed potentially positive if AGE-fluorescence was suppressed.
The histone H1 (1.5 mg/ml) was combined with 1 mM ADP-ribose, in […] KH2PO4 buffer (pH 7.4, 37° C., 0.015% NaN3 added, to inhibit microbial growth). This reaction mixture was added, to 96 well microtiter plates. Test compounds were added to the reaction mixture, at concentrations ranging from 1 to 10 mM, in reaction volumes of 300 ul. Texts were run in duplicate.
Accumulated protein damage was determined by measuring AGE-fluorescence, at wavelengths (λex=370 nm; λ em=440 nm. The fluorescence is suppressed in the presence of compounds with inhibitory activity. Assays were read on a conventional microtiter plate, with a filter setting that approached the above conditions (λ ex: 355 nm, λ […]: 405 nm), which is in the range of the broad excitation/emission maxima of AGE compounds.
The fluorescence was measured at the beginning, and after 5 days of incubation.
The known glycation inhibitor aminoguanidine was used as a control.

[2] = test system: histone H1 (cross linking by ADP-ribose); test: glycation induced cross linking of histone H1, 12% SDS-PAGE, silver staining; format: biochemical, calf; conditions: aliquots of 5 day incubation mixtures
Procedure: This example describes a secondary screening, to further evaluate compounds which were deemed positive following the assays of examples 1 and 2. Specifically, it will be recalled that each sample was tested in two wells, one of which was tested in example 2, supra. The sample not used was analyzed, via 12% SDS-PAGE, followed by silver staining, in order to visualize protein cross-linking. This serves as an independent measure of glycation caused protein damage. […] To test this, reaction aliquots of the 5 day incubation mixtures, described in Example 1, supra, were assessed on 12% SDS-PAGE. Both untreated histone H1, and the aminoguanidine containing positive control were tested in the same way. All were visualized by silver staining.

[3] = test system: He-Cat (human epidermal keratinocytes); test: protection against α-dicarbonyl toxicity in keratinocytes, cell count; format: cell-based; conditions: for protection against growth inhibition by glyoxal: compound 1 mM added 15 minutes prior to glyoxal; for protection against growth inhibition by glyoxal / protection against methylglyoxal induced growth inhibition: 72 hours; for protection against methylglyoxal induced growth inhibition: compound 1 mM added 15 minutes prior to methylglyoxal
Procedure: (§1) Continuously cultured cell lines “He-Cat” (human epidermal keratinocytes), and “CF-3” (human dermal fibroblasts), were cultured under standard conditions, divided biweekly into DMEM containing 10% fetal bovine serum, and were kept in a humidified atmosphere containing 5% CO2 at 37° C. In order to divide the cells, 5% trypsin was used on the keratinocytes, and 1% trypsin was used on the fibroblasts.
(§2) Keratinocytes were seeded at 2×10^4 cells/well, and fibroblasts at 4×10^4 cells/well, using 6 well dishes. The cells were allowed to attach to the plate overnight. Either D-penicillamine or aminoguanidine (1 mM each) was added to the plates 15 minutes prior to addition of glyoxal or methylglyoxal. The α-dicarbonyl was left for 72 hours. Varying concentrations of the α-dicarbonyl were used. Cells were counted with a Coulter counter after 72 hours of stress. Cultures were also run where the glyoxal or methylglyoxal was used without the scavenger. L-alanine was used as a negative control as it was not expected to have protective effect.

[4] = test system: CF-3 (human dermal fibroblasts); test: protection against α-dicarbonyl toxicity in fibroblasts, cell count; format: cell-based; conditions: for protection against methylglyoxal induced growth inhibition: compound 1 mM added 15 minutes prior to methylglyoxal, 72 hours
Procedure: as §1, §2

[5] = test system: histone H1 (carbonylation); test: histone H1 carbonylation by reducing sugars, and interference by compounds; format: biochemical; conditions: compound 5 mM
Procedure: Both protein cross-linking and protein carbonylation are well established indicia of protein glycation. See Schacter, et al., Free Radic Biol Med. 17:429-437 (1994), incorporated by reference. In brief, following the assays described infra, formation of protein cross-linking was measured on 12% SDS-PAGE, followed by Coomassie and silver staining. Cross-linking was detectable with a high degree of sensitivity, when the reaction between ADP-ribose and histone H1 was carried out at pH 9.0. […] In FIG. 8, the abbreviations “M,” “D”, and “O” represent “monomer,” “dimer” and “oligomer,” respectively. Silver staining is the preferred way of determining the cross linking. Protein carbonlyation was determined via Western blotting. Specifically, AGE-BSA, which had been prepared by incubating BSA with 1.66M glucose, at pH 7.4 for 90 days at 37° C., was recognized after being derivatized with 2.4 dinitrophenlyhydrazine (“DNP”), when tested with antibodies specific for protein bound, DNP epitopes.
A series of experiments were carried out to compare different reducing sugars as glycation agents. In addition to ADP-ribose, ADP-glucose, D-ribose and D-glucose were tested. Briefly, histone H1 was combined with 1 mM of each sugar, and the mixture was incubated at pH 7.4. After 7 days of incubation, reaction aliquots were analyzed on 12% SDS-PACE gels, with silver staining. Results are presented in FIGS. 19A and B. In each of these, lane 1 is a control, with no sugar added, while lanes 2-5 show results using D-glucose, D-ribose, ADP-glucose, and ADP-ribose, respectively. […] The amount of carbonylation caused by ADP-ribose (0.82 mole/mole histone H1), and D-ribose (0.06 mole/mole histone H1) correlated with immunostaining.
In order to determine if the carbonylation of histone H1 by ADP-ribose involved an oxidative pathway, several compounds, known to interfere with glycoxidation of proteins by D-glucose were tested to determine if they interfered with this action by ADP-ribose. The compounds tested included 5 mM DTPA under argon, 5 mM aminoguanidine, 5 mM N^α acetyl L-cysteine, 5 mM mannitol, and 100 units/ml catalase.

[6] = α-dicarbonyl trapping, reaction with phenylglyoxal followed by HPLC
Procedure: To learn more about the reaction, D-penicillamine was reacted with phenylglyoxal. In the fashion described supra, phenylgyloxal, at final concentration of 10 mM, and D-penicillamine, at final concentration of 20 mM were reacted in 50 mM KH2PO4 buffer, pH 7.4, at room temperature. Reaction progress was monitored via HPLC analysis of reaction aliquots at 254 nm. After 40 minutes, more than 90% conversion of phenylgloxal peak into a single peak was observed. The product was obtained via preparative HPLC, was lyophilized, and analyzed by H-NMR spectroscopy.
Reactions were carried out in 10 mM phosphate buffer, pH 7.4, at 37° C., and were followed by HPLC analysis. Phenylglyoxal was used at a concentration of 50 mM, while D-penicillamine and aminoguanidine were used at concentrations of 250 mM, and 500 mM. The phenylglyoxal was used as a UV active, α-oxoaldehyde compound. Over the course of the reaction, aliquots were analyzed via HPLC. […] Initial reaction rates of phenylglyoxal and test compounds were monitored by following the disappearance of phenylglyoxal over time. […]
The measured, first order rate constant (k1st) was used to calculate the second order rate constant (k2nd), according to: […]
The calculated second order rate constants were determined at two reactant rates (5:1, and 10:1), and were in good agreement.

[7] = aldehyde trapping, reaction with phenylacetaldehyde followed by HPLC; conditions: same manner as phenylglyoxal
Procedure: Reactions were carried out in 10 mM phosphate buffer, pH 7.4, at 37° C., and were followed by HPLC analysis. Phenylglyoxal was used at a concentration of 50 mM, while D-penicillamine and aminoguanidine were used at concentrations of 250 mM, and 500 mM. The phenylglyoxal was used as a UV active, α-oxoaldehyde compound. Over the course of the reaction, aliquots were analyzed via HPLC. For reactions involving D-penicillamine, aliquots were taken at 20 second intervals and kept on dry ice for analysis. Initial reaction rates of phenylglyoxal and test compounds were monitored by following the disappearance of phenylglyoxal over time. D-penicillamine trapped phenylglyoxal more than 60 times faster than aminoguanidine. In order to determine if the α-oxo substitution had any impact on the progress of the aldehyde trapping reaction, the reactivity of D-penicillamine with the aldehyde corresponding to phenylglyoxal, i.e., phenylacetaldehyde, was carried out, in the same manner as is described herein.

[8] = increased concentration of D-penicillamine, methylglyoxal
[9] = treated with 6004M methylglyoxal (so in the source)

| Structure (SMILES) | inhibition of AGE-fluorescence, in words [1] | AGE-fluorescence (day 5) ([1]; compound 1 mM) | % inhibition ([1]; compound 1 mM) [%] | AGE-fluorescence (day 0) ([1]; compound 1 mM) | AGE-fluorescence (day 5) ([1]; compound 5 mM) | % inhibition ([1]; compound 5 mM) [%] | AGE-fluorescence (day 0) ([1]; compound 5 mM) | AGE-fluorescence (day 5) ([1]; compound 10 mM) | % inhibition ([1]; compound 10 mM) [%] | AGE-fluorescence (day 0) ([1]; compound 10 mM) | inhibition of histone H1 cross linking [2] | protection against growth inhibition by glyoxal [3] | protection against methylglyoxal induced growth inhibition [3] | protection against methylglyoxal induced growth inhibition [4] | also measured |
| --- | --- | --- | --- | --- | --- | --- | --- | --- | --- | --- | --- | --- | --- | --- | --- |
| CC(C)(S)C(N)C(=O)O (racemic) [D,L-Penicillamine] | the best of the compounds tested | 13 (0.0) | 40 | 1.1 (0.2) | 2.7 (0.0) | 92 | 1.1 (0.1) | 1.7 (0.0) | 97 | 1.1 (0.1) | more potent than aminoguanidine |  |  |  |  |
| NC(=O)C1=CN([C@@H]2O[C@H](COP(=O)(O)OP(=O)(O)OC[C@H]3O[C@@H](n4cnc5c(N)ncnc54)[C@H](O)[C@@H]3O)[C@@H](O)[C@H]2O)C=CC1 [NADH] |  |  |  |  | 31 (0.0) |  |  |  |  |  | no inhibitory activity |  |  |  |  |
| N=C(N)NN [Aminoguanidine, aminoguanidine, reference compound] |  | 4.3 (0.2) | 84 | 1.2 (0.1) | 2.2 (0.0) | 96 | 1.2 (0.1) | 1.8 (0.0) | 97 | 1.3 (0.1) |  | appeared to protect keratinocytes against growth inhibition by glyoxal | rescued both cell lines from methylglyoxal induced growth inhibition in part | rescued both cell lines from methylglyoxal induced growth inhibition in part | suppression of AGE-fluorescence, primary screen outcome ([1]; test compound 5 mM or limit of solubility, pH 7.4, 37° C.): suppresses the glycation of histone H1 by ADP-ribose; interference with carbonylation of histone H1 by ADP-ribose [5]: slight effect |
| CC(C)(S)[C@@H](N)C(=O)O [D-Penicillamine, reference compound] | the best of the compounds tested | 11 (0.6) | 51 | 1.2 (0.0) | 2.9 (0.3) | 91 | 1.1 (0.1) | 1.4 (0.1) | 99 | 1.1 (0.0) | more potent than aminoguanidine | appeared to protect keratinocytes against growth inhibition by glyoxal | almost completely blocked methylglyoxal's toxicity | almost completely blocked methylglyoxal's toxicity | conversion of phenylglyoxal peak into a single peak ([6]; phenylglyoxal 10 mM, D-penicillamine 20 mM, 50 mM KH2PO4 pH 7.4, room temperature, after 40 minutes): more than 90%; rate of phenylglyoxal trapping relative to aminoguanidine ([6]; second order rate constants, 10 mM phosphate buffer pH 7.4, 37° C.): more than 60 times faster; efficiency of trapping phenylacetaldehyde relative to phenylglyoxal [7]: about 14 times less efficiently; dose range cyto-protective effect [3, 8]: increased protection; survival [3, 9]: 100%; dose range cyto-protective effect [4, 8]: increased protection; survival [4, 9]: 47% |
